Laboratory results reported in patent US20140024663A1, “ATB(0,+) AMINO ACID TRANSPORTER AS A DRUG TARGET FOR TREATMENT OF ESTROGEN RECEPTOR-POSITIVE BREAST CANCER” (GEORGIA HEALTH SCIENCES UNIVERSITY RESEARCH INSTITUTE, INC., priority 2012, published 2014).

Experiments:
Human SLC6A14 = target: T1, Human SLC6A14 (Homo sapiens, UniProt Q9UN76); assay: SLC6A14 transport function in X. laevis oocytes (two-microelectrode voltage-clamp); format: cell-based; settings: 1 mM α-MT; currents induced by 100 M (so in the source) leucine, glutamine or arginine
T1 construct: expressed in transfected cells; host or cells: Xenopus laevis oocytes, microinjected with human SLC6A14 cRNA
T1 sequence (Q9UN76 1-642): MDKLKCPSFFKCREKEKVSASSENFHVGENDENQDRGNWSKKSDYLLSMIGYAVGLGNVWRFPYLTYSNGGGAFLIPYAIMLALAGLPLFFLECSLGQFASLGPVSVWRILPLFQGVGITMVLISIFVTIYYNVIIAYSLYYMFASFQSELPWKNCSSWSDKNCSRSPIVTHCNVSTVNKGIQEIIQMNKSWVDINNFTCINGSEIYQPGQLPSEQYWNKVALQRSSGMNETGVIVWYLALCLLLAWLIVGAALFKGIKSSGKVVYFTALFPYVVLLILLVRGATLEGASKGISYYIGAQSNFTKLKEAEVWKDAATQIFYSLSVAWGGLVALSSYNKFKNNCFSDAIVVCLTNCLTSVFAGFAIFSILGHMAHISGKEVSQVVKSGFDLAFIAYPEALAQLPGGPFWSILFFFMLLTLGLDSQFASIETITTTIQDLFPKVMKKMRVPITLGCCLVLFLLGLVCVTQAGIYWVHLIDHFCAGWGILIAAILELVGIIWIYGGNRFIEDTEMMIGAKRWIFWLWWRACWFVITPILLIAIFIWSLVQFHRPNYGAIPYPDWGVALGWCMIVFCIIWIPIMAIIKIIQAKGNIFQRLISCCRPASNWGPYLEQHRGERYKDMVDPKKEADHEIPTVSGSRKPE
From the text: FIGS. 3A and 3B. Natactivation kinetics of SLC6A14-mediated transport of leucine (FIG. 3A) and arginine and glutamine (FIG. 3B). Human SLC6A14 was expressed heterologously in X. laevis oocytes by microinjection of cRNA. Four days following injection, oocytes were used for electrophysiological studies using the two-microelectrode voltage-clamp method. […] Since the expression levels varied from oocyte to oocyte resulting in varying magnitudes of amino acid-induced currents, the currents were normalized by taking the magnitude of the currents induced at 100 mM Na^+ as 1 in each oocyte and calculating the magnitude of the currents induced at other concentrations of Na^+ as a fraction of this maximal current. The experiments were done with three different oocytes and the results are given as means±SE. Insets, Hill plots.
FIG. 4. Cl^−-activation kinetics of SLC6A14-mediated transport of leucine, arginine, and glutamine. […] The experiments were done with three different oocytes and the results are given as means±SE.
FIGS. 5A to 5C. Blockade of SLC6A14-mediated transport of leucine (FIG. 5A), glutamine (FIG. 5B), and arginine (FIG. 5C) by α-MT. Oocytes injected with human SLC6A14 cRNA were perifused with 100 µM leucine, 100 μM glutamine, or 100 μM arginine under varying experimental conditions as indicated.
Analysis of SLC6A14 transport function in X. laevis oocytes. SLC6A14-mediated transport of leucine, glutamine, and arginine and its blockade by α-MT were studied using the X. laevis oocyte heterologous expression system as described previously (Hatanaka et al., 2001, J Clin Invest; 107:1035-1043; and Karunakaran et al., 2008, Biochem J; 414:343-355). Human cloned SLC6A14 cDNA was used in these studies.

MB231 cells = assay: Western blot of lamin A degradation product (caspase-6 substrate); format: cell-based, human; settings: SLC6A14-negative MB231 cells, α-MT 2.5 mM, identical conditions
Procedure: (§1) FIGS. 9A to 9D. Influence of α-MT on mTOR activity In FIG. 9A, MCF7 and MB231 cells were treated without or with α-MT (2.5 mM) for 24 h, 48 h, or 72 h, and then the cell lysates were used for western blot. Influence of α-MT with or without 3-MA on cell death. In FIG. 9B, MCF7, MB231, and MCF10A cells were treated for 48 h without or with α-MT (2.5 mM), 3-MA (10 mM), or α-MT (2.5 mM) plus 3-MA (10 mM), and then analyzed for cell death by propidium iodide (PI) staining and FACS-based cell cycle analysis. In FIG. 9C, MCF7 cells were treated for 48 h without or with α-MT (2.5 mM), 3-MA (10 mM), or α-MT (2.5 mM) plus 3-MA (10 mM), and then analyzed for apoptotic cell death by annexin V labeling. In FIG. 9D, MCF7 and MB231 cells were treated without or with 2.5 mM α-MT for 24 h, 48 h, or 72 h. Cell lysates were then used for western blot analysis of lamin A degradation product using an antibody that recognizes specifically the proteolytic cleavage product. β-Actin was used as an internal control.

MCF7 cells = assay: as above; format: cell-based, human; settings: MCF7, α-MT 2.5 mM, 24, 48 or 72 h
Procedure: as §1

## CC(N)(Cc1c[nH]c2ccccc12)C(=O)O (racemic) [α-MT, α-methyl-DL-tryptophan]
Human SLC6A14
  blockade of amino acid-induced inward currents: blocked
MB231 cells
  apoptosis (Lamin A cleavage): no evidence of apoptosis
MCF7 cells
  apoptotic cell death shown by Lamin A cleavage: cleavage of Lamin A
